Data published in patent US11739098B2 (BRISTOL-MYERS SQUIBB COMPANY, priority 2017, dated 2023).

Key:
Assay type in all cases: cell-based
[1] = target: T1, human TLR9 (Homo sapiens, UniProt Q9NR96); assay: TLR9 inhibition reporter assay (HEK-Blue cells, SEAP reporter, ODN2006 stimulation); settings: HEK-Blue cells overexpressing human TLR9, SEAP reporter, ODN2006 5 nM
T1 construct: host or cells: HEK-Blue cells (HEK293-derived reporter line)
T1 sequence (Q9NR96 26-1032): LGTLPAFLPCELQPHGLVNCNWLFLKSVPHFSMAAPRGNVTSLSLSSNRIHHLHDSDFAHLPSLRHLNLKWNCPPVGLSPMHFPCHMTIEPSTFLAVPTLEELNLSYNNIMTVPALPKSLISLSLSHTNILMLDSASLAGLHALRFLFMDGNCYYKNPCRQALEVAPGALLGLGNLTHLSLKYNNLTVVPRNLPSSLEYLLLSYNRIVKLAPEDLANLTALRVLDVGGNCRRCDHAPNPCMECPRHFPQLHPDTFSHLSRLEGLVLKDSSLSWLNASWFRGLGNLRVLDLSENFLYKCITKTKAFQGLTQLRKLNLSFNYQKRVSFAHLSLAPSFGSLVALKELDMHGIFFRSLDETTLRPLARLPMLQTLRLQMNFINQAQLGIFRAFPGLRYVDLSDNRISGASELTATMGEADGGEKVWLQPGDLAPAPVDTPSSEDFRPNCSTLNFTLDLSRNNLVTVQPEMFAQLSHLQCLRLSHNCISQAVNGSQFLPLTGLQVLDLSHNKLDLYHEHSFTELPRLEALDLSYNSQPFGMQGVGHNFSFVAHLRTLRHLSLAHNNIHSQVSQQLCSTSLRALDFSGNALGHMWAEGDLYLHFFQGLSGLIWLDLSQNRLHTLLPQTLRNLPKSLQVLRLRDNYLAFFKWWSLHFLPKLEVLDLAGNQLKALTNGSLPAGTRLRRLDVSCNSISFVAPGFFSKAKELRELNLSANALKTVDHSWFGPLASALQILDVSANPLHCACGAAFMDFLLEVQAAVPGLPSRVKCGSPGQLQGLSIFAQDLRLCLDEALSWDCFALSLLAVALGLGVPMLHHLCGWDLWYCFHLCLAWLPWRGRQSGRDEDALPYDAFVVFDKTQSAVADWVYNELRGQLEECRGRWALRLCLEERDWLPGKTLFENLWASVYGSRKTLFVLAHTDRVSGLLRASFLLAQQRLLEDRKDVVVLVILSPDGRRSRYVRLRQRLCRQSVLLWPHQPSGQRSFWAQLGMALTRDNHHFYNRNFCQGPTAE
Method in brief: (§1)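 Percent inhibition of agonist-induced SEAP secretion in HEK-Blue cells after 22 h at 37 °C. Stimuli: 7.5 μM gardiquimod, 15.9 μM R848, 5 nM ODN2006 for TLR7, TLR8 and TLR9, added after 30 min compound exposure over a 0.05 nM–50 μM range.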

[2] = target: T2, human TLR7 (Homo sapiens, UniProt Q9NYK1); assay: TLR7 inhibition reporter assay (HEK-Blue cells, SEAP reporter, gardiquimod stimulation); settings: HEK-Blue cells overexpressing human TLR7, SEAP reporter, gardiquimod 7.5 μM
T2 construct: host or cells: HEK-Blue cells (HEK293-derived reporter line)
T2 sequence (Q9NYK1 27-1049): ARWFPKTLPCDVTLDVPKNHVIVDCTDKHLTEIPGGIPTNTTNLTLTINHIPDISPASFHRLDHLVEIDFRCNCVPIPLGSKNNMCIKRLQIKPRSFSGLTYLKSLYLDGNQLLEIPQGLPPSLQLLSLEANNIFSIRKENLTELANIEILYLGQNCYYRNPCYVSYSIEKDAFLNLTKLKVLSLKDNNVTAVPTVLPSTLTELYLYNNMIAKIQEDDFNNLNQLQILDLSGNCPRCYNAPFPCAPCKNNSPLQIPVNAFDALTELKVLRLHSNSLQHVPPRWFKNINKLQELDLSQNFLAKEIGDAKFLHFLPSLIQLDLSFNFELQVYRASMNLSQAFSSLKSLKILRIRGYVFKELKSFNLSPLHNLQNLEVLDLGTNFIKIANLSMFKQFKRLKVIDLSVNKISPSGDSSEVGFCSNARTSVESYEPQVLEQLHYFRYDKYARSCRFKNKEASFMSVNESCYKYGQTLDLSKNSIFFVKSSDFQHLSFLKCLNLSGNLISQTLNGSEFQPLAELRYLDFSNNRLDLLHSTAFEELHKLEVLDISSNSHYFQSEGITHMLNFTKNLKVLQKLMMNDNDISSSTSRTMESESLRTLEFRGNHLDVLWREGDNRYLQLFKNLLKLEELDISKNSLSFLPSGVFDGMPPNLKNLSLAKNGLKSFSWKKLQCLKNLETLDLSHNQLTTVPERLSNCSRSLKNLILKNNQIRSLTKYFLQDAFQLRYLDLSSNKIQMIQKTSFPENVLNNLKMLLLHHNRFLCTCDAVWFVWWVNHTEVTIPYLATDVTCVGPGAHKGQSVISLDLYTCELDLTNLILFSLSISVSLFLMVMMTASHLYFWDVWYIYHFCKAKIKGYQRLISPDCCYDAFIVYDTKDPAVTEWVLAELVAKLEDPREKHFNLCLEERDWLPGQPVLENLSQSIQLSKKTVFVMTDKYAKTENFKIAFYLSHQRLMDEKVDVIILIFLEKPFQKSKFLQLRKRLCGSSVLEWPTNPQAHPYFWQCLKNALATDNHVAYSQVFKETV
Method in brief: as §1

[3] = target: T3, human TLR8 (Homo sapiens, UniProt Q9NR97); assay: TLR8 inhibition reporter assay (HEK-Blue cells, SEAP reporter, R848 stimulation); settings: HEK-Blue cells overexpressing human TLR8, SEAP reporter, R848 15.9 μM
T3 construct: host or cells: HEK-Blue cells (HEK293-derived reporter line)
T3 sequence (Q9NR97 27-1041): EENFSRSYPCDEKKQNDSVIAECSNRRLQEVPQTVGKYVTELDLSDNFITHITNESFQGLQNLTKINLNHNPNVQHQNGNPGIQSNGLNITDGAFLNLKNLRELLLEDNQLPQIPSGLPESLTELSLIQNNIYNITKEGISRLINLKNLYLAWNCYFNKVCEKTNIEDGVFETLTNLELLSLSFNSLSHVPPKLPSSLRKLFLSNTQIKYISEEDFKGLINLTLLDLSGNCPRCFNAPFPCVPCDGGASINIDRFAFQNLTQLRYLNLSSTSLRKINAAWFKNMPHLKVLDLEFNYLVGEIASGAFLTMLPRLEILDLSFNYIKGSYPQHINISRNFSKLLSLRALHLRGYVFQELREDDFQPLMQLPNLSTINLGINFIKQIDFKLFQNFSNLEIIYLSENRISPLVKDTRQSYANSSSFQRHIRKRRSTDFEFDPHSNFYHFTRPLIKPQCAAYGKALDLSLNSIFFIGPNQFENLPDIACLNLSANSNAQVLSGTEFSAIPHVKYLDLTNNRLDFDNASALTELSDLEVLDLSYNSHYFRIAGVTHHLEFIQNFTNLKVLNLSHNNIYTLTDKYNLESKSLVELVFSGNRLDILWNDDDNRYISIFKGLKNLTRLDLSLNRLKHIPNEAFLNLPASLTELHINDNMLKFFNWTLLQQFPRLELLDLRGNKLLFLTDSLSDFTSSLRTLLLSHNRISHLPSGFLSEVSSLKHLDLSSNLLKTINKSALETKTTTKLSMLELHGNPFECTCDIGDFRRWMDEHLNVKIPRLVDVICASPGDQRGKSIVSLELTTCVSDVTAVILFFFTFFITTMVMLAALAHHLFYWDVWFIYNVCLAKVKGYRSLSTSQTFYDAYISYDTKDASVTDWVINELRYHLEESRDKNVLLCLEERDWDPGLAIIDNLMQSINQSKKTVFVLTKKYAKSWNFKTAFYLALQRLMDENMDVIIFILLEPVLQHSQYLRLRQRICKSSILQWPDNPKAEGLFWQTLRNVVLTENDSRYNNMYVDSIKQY
Method in brief: as §1

SMILES | IC50 [1] | IC50 [2] | IC50 [3]
CCc1c(-c2ccnc3[nH]ncc23)[nH]c2ccc(C3CCNCC3)c(C)c12 [Example 254, 4-(3-ethyl-4-methyl-5-(piperidin-4-yl)-1H-indol-2-yl)-1H-pyrazolo[3,4-b]pyridine] | > 50 µM | 1 to 50 µM | 1 to 50 µM
Cc1cc(-c2[nH]c3ccc(C4CCN(C5CCOCC5)CC4)cc3c2C(C)C)cn2nnnc12 [Example 698, 6-(3-isopropyl-5-(1-(tetrahydro-2H-pyran-4-yl)piperidin-4-yl)-1H-indol-2-yl)-8-methyltetrazolo[1,5-a]pyridine] | 1 to 50 µM | < 0.1 µM | < 0.1 µM
Cc1cc(-c2[nH]c3ccc(C4CCN(C(=O)CN(C)C)CC4)cc3c2C(C)C)cc2[nH]c(=O)oc12 [Example 490, 5-(5-(1-(dimethylglycyl)piperidin-4-yl)-3-isopropyl-1H-indol-2-yl)-7-methylbenzo[d]oxazol-2(3H)-one] | 1 to 50 µM | 0.1 to 1 µM | 0.1 to 1 µM
Cc1cc(-c2[nH]c3ccc(C4CCN(CC(=O)N(C)C)CC4)cc3c2C(C)C)cc2cncn12 [Example 439, 2-(4-(3-isopropyl-2-(5-methylimidazo[1,5-a]pyridin-7-yl)-1H-indol-5-yl)piperidin-1-yl)-N,N-dimethylacetamide] | 1 to 50 µM | < 0.1 µM | < 0.1 µM
CNc1c[nH]c2nccc(-c3[nH]c4ccc(C5CCNCC5)cc4c3C)c12 [Example 210, N-methyl-4-(3-methyl-5-(piperidin-4-yl)-1H-indol-2-yl)-1H-pyrrolo[2,3-b]pyridin-3-amine] | 1 to 50 µM | 1 to 50 µM | 1 to 50 µM
COc1cc(-c2[nH]c3ccc(C4CCN(CCS(C)(=O)=O)CC4)cc3c2C(C)C)cc2ncnn12 [Example 797, 7-(3-isopropyl-5-(1-(2-(methylsulfonyl)ethyl)piperidin-4-yl)-1H-indol-2-yl)-5-methoxy-[1,2,4]triazolo[1,5-a]pyridine] | 1 to 50 µM | < 0.1 µM | < 0.1 µM
CC(C)c1c(-c2n[nH]c3ncccc23)[nH]c2ccc(C3CCNCC3)cc12 [Example 18, 3-(3-isopropyl-5-(piperidin-4-yl)-1H-indol-2-yl)-1H-pyrazolo[3,4-b]pyridine] | 1 to 50 µM | < 0.1 µM | < 0.1 µM
COc1cc2[nH]c(-c3ccnc4[nH]ncc34)c(C(C)C)c2cc1C1CCNCC1 [Example 255, 4-(3-isopropyl-6-methoxy-5-(piperidin-4-yl)-1H-indol-2-yl)-1H-pyrazolo[3,4-b]pyridine] | 1 to 50 µM | < 0.1 µM | 0.1 to 1 µM
CC(C)c1c(-c2cn(C)c3ncccc23)[nH]c2ccc(C3CCN(C4COC4)CC3)cc12 [Example 733, 3-(3-isopropyl-5-(1-(oxetan-3-yl)piperidin-4-yl)-1H-indol-2-yl)-1-methyl-1H-pyrrolo[2,3-b]pyridine] | 1 to 50 µM | < 0.1 µM | < 0.1 µM

Continued, values first:

IC50 [1] | IC50 [2] | IC50 [3] | SMILES
1 to 50 µM | < 0.1 µM | < 0.1 µM | CC(C)c1c(-c2ccnc3[nH]ncc23)[nH]c2ccc(C3CCN(C(=O)Cc4c[nH]cn4)CC3)cc12 [Example 612, 2-(1H-imidazol-4-yl)-1-(4-(3-isopropyl-2-(1H-pyrazolo[3,4-b]pyridin-4-yl)-1H-indol-5-yl)piperidin-1-yl)ethan-1-one]
1 to 50 µM | > 50 µM | > 3.13 µM | CNCCN1CCC(c2ccc3[nH]c(-c4cc5cc(OC)ccc5o4)c(C)c3c2)CC1 [Example 671, 2-(4-(2-(5-methoxybenzofuran-2-yl)-3-methyl-1H-indol-5-yl)piperidin-1-yl)-N-methylethan-1-amine]
1 to 50 µM | < 0.1 µM | < 0.1 µM | Cc1cc(-c2[nH]c3ccc(C4CCN(C5CCS(=O)(=O)CC5)CC4)cc3c2C(C)C)cn2nnnc12 [Example 788, 4-(4-(3-isopropyl-2-(8-methyltetrazolo[1,5-a]pyridin-6-yl)-1H-indol-5-yl)piperidin-1-yl)tetrahydro-2H-thiopyran 1,1-dioxide]
1 to 50 µM | < 0.1 µM | < 0.1 µM | CC(C)c1c(-c2ccn3ncnc3c2)[nH]c2ccc(C3CCNCC3)cc12 [Example 197, 7-(3-isopropyl-5-(piperidin-4-yl)-1H-indol-2-yl)-[1,2,4]triazolo[1,5-a]pyridine]
0.1 to 1 µM | < 0.1 µM | < 0.1 µM | Cc1cc(-c2[nH]c3ccc(C4CCN(C5CCOCC5)CC4)cc3c2C(C)C)cn2ccnc12 [Example 705, 6-(3-isopropyl-5-(1-(tetrahydro-2H-pyran-4-yl)piperidin-4-yl)-1H-indol-2-yl)-8-methylimidazo[1,2-a]pyridine]
< 0.1 µM | < 0.1 µM | < 0.1 µM | CC1CC(N2CCC(c3ccc4[nH]c(-c5ccnc6[nH]ncc56)c(C(C)C)c4c3)CC2)CCN1 (stereo not drawn) [Example 820, 4-(3-isopropyl-5-(2′-methyl-[1,4′-bipiperidin]-4-yl)-1H-indol-2-yl)-1H-pyrazolo[3,4-b]pyridine]
